Molecules are shown by their SMILES. Converted amounts (≈) assume the structure as drawn.

From patent US8975289B2, “Benzyl aralkyl ether compounds, method for preparing same, intermediate compounds, use of said compounds, method for treatment and/or prevention, pharmaceutical composition and medicament containing same” (priority 2009, dated 2015) come the findings set out here.

Common to all, as to format: cell-based
One experiment relates to Candida glabrata 2001. Nature of the experiment: Broth microdilution MIC (M27-A2), yeast, strain XVI. To be noted: strain XVI 2001, 48 hours incubation. The procedure:
(§1) For the experiments of the present invention (i) yeast strains obtained from clinical isolates and laboratory isolates, and (ii) bacterial strains obtained from laboratory isolates were used, as described in Table 5 as follows. The yeast strains were grown in culture medium Sabouraud Dextrose Agar maintained at a temperature of 35° C. for 48 hours. […] The compounds were dissolved in dimethyl sulfoxide (DMSO) to match the final concentration of the compound equal to or less than 1%. The methodology used to test the sensitivity of the agent was broth microdilution according to the method described in Standard M27-A2 (Reference method for broth dilution tests to determine the sensitivity of yeasts to antifungal therapy-second edition, NCCLS, volume 22 number 15, USA, 2002) as follows. […] Then the suspensions were diluted in culture medium RPMI-1640 (buffered with MOPS 0.165 mol/l) at a final concentration of 50 to 2500 CFU/mL. The diluted suspensions were inoculated in duplicate in a 96-well plate. The procedure was performed in a laminar flow. […] The incubation of fungi with these compounds was carried out for 48 hours at temperature of 30 to 35° C. […] We have agreed in this experiment that the turbid medium is the result of microbial growth and the presence of deposit and a clear medium represents the absence of microbial growth. The minimum inhibitory concentration (MIC) was defined as the lowest tested drug concentration that prevents any degree of […] growth.

The next experiment has as its system Candida albicans 10231. Nature of the experiment: Broth microdilution MIC (M27-A2), yeast, strain XIV. To be noted: strain XIV 10231, 48 hours incubation. The procedure:
as §1

For experiment [1], the system named is three different species of yeast and two distinct species of bacteria. Kind of experiment: Growth inhibition of the yeast and bacteria strains of Table 5, summary. The procedure: For the experiments of the present invention (i) yeast strains obtained from clinical isolates and laboratory isolates, and (ii) bacterial strains obtained from laboratory isolates were used, as described in Table 5 as follows.
The yeast strains were grown in culture medium Sabouraud Dextrose Agar maintained at a temperature of 35° C. for 48 hours.
The bacterial strains were grown in culture medium Triptic Soy Agar at 35° C. for two to six hours (or until the turbidity of a McFarland standard solution equal to 0.5). 5.2 Mounting of Preparations and Test For the experiments, compound 1-[2-(2,4-dichlorophenyl)-2-{[4-(trifluoromethyl)benzyl]oxy}ethyl]-1H-imidazole (BL-123) in the form of its nitrate salt, 1-[2-(2,4-dichlorophenyl)]-2-({4-[(2-phenyl)-2H-tetrazole]benzyl}oxy)ethyl]-1H-imidazole (BL-137), and miconazole nitrate were used. The compounds were dissolved in dimethyl sulfoxide (DMSO) to match the final concentration of the compound equal to or less than 1%.
The methodology used to test the sensitivity of the agent was broth microdilution according to the method described in Standard M27-A2 (Reference method for broth dilution tests to determine the sensitivity of yeasts to antifungal therapy-second edition, NCCLS, volume 22 number 15, USA, 2002) as follows.
The yeast strains were grown according to item 5.1.a to obtain a culture containing between 1×10^6 and 5×10^6 CFU/mL. […]

The test system of experiment [2] is Candida parapsilosis 22019. Kind of experiment: Broth microdilution MIC (M27-A2), yeast, strain XV. To be noted: strain XV 22019, 48 hours incubation. The procedure:
as §1

Experiment [3] relates to Staphylococcus aureus 6538. Nature of the experiment: Broth microdilution MIC (M7-A6), bacteria, strain XVIII. To be noted: strain XVIII 6538, 24 hours incubation. The procedure: (§2) For the experiments of the present invention (i) yeast strains obtained from clinical isolates and laboratory isolates, and (ii) bacterial strains obtained from laboratory isolates were used, as described in Table 5 as follows. […] The compounds were dissolved in dimethyl sulfoxide (DMSO) to match the final concentration of the compound equal to or less than 1%. The methodology used to test the sensitivity of the agent was broth microdilution according to the method described in Standard M7-A6 (Methodology of sensitivity tests to antimicrobial agents by dilution for bacteria with aerobic growth-6th Edition: NCCLS, volume 23, No. 2, USA, 2003), as follows. […] Then the suspensions were diluted in Mueller Hinton culture medium to a final concentration of 5×10^4CFU/mL. The diluted suspensions were inoculated in 0.1 mL in duplicates in […] plates. The procedure was performed in a laminar flow. […] Incubation of fungi with these compounds was carried out for 24 hours at a temperature of 30 to 35° C. […] We have agreed in this experiment that the turbid medium is the result of microbial growth and the presence of deposit and a clear medium represents the absence of microbial growth. The minimum inhibitory concentration (MIC) was defined as the lowest tested drug concentration that prevents any degree of bacterial growth.

Experiment [4] has as its system Staphylococcus epidermidis 12228. Kind of experiment: Broth microdilution MIC (M7-A6), bacteria, strain XVII. To be noted: strain XVII 12228, 24 hours incubation. How it is done: as §2

As to `Clc1ccc(C(Cn2ccnc2)OCc2ccc(-c3nnn(-c4ccccc4)n3)cc2)c(Cl)c1` (stereo not drawn) [BL-137], the MIC in the experiment with Candida glabrata 2001 came to 512.0 µg/mL (≈ 1040 µM); in the experiment on Candida albicans 10231 it was 512.0 µg/mL (≈ 1040 µM); in experiment [2], 512.0 µg/mL (≈ 1040 µM); in experiment [3], 128.0 µg/mL (≈ 260 µM); in experiment [4], 128.0 µg/mL (≈ 260 µM). Moreover, the “Inhibitory effect on growth (in words)” value in experiment [1] is “exert an inhibitory effect on the growth”.
